# Assay results: Sander's compilation of Henry's law constants
# Values joined by “and” are separate entries in the source; they are usually repeats but may differ in a detail not shown here. Equal entries are not always repeated.
# Test: Henry solubility constant Hcp at 298.15 K (mol/(m3 Pa))
# [1] = reference: Amoore and Buttery (1978)
# [2] = reference: Christie and Crisp (1967)
# [3] = reference: Murphy et al. (1983a)
# [4] = reference: Kutsuna et al. (2005)
# [5] = reference: Fichan et al. (1999)
structure (smiles),measurement,setting,value
"Brc1ccc(Oc2c(Br)cc(Br)cc2Br)c(Br)c1 [2,2',4,4',6-pentabromodiphenyl ether]",Henry solubility constant Hcp,reference: Cetin and Odabasi (2005),3.8
same,Henry solubility constant Hcp,reference: Charles and Destaillats (2005),0.19
same,Henry solubility constant Hcp,reference: Long et al. (2017),3.6
"ClC1C(Cl)C(Cl)C(Cl)C(Cl)C1Cl (stereo not drawn) [β-1,2,3,4,5,6-hexachlorocyclohexane]",Henry solubility constant Hcp,reference: Sahsuvar et al. (2003),28
C#CCBr [3-bromo-1-propyne],Henry solubility constant Hcp,reference: Yates and Gan (1998),0.0088
CCCC(=O)CC [3-hexanone],Henry solubility constant Hcp,reference: Hovorka et al. (2019),0.076
CCCC(=O)OCC [ethyl butanoate],Henry solubility constant Hcp,reference: Aprea et al. (2007),0.024
same,Henry solubility constant Hcp,reference: Fenclová et al. (2014),0.029
same,Henry solubility constant Hcp,reference: Landy et al. (1995),0.024
same,Henry solubility constant Hcp,reference: Landy et al. (1996),0.04
same,Henry solubility constant Hcp,reference: Souchon et al. (2004),0.026
ClC1CCCCC1 [chlorocyclohexane],Henry solubility constant Hcp,reference: Bakierowska and Trzeszczyński (2003),0.0028
"N#Cc1c(Cl)c(Cl)c(Cl)c(C#N)c1Cl [2,4,5,6-tetrachloro-1,3-dicyanobenzene]",Henry solubility constant Hcp,reference: Kawamoto and Urano (1989),50
"FC(F)(Cl)C(F)(F)Cl [1,2-dichlorotetrafluoroethane]",Henry solubility constant Hcp,reference: Reichl (1995),9e-06
ClC1(Cl)C2(Cl)C3(Cl)C4(Cl)C(Cl)(Cl)C5(Cl)C3(Cl)C1(Cl)C5(Cl)C24Cl (stereo not drawn) [mirex],Henry solubility constant Hcp,reference: Yin and Hassett (1986),0.012
C1=C\CCCCCC/1 [cyclooctene],Henry solubility constant Hcp,reference: Dohányosová et al. (2004),0.00021
CN1CCNCC1 [N-methylpiperazine],Henry solubility constant Hcp,reference: Nguyen (2013),1800
CCCCCN [1-pentanamine],Henry solubility constant Hcp,[1],0.31
same,Henry solubility constant Hcp,[2],0.4
CCC(C)O[N+](=O)[O-] (stereo not drawn) [2-butyl nitrate],Henry solubility constant Hcp,reference: Hauff et al. (1998),0.0044
same,Henry solubility constant Hcp,reference: Luke et al. (1989),0.0063
"Clc1cccc(-c2ccc(Cl)c(Cl)c2Cl)c1Cl [2,2',3,3',4-pentachlorobiphenyl]",Henry solubility constant Hcp,[3],0.049
CCCOC=O [propyl methanoate],Henry solubility constant Hcp,[4],0.026
C=C(C)C1CCC2(C)OC2C1 (stereo not drawn) [limonene oxide],Henry solubility constant Hcp,[5],0.056
"C/C=C/C=C/C=O [(E,E)-2,4-hexadienal]",Henry solubility constant Hcp,reference: Buttery et al. (1971),1
CCCCCCCCCC=O [decanal],Henry solubility constant Hcp,reference: Buttery et al. (1965),0.17
"C1CNCCN1 [1,4-diazacyclohexane]",Henry solubility constant Hcp,reference: Nguyen (2013),4500
N=C=O [isocyanic acid],Henry solubility constant Hcp,reference: Roberts et al. (2011),0.21
O=C(O)C(F)(F)C(F)(F)C(F)(F)C(F)(F)C(F)(F)C(F)(F)C(F)(F)F [pentadecafluorooctanoic acid],Henry solubility constant Hcp,reference: Kutsuna and Hori (2008b),0.049
same,Henry solubility constant Hcp,reference: Kwan (2001),2.8
same,Henry solubility constant Hcp,reference: Li et al. (2007),0.4
"O=COCC(F)(F)F [2,2,2-trifluoroethyl methanoate]",Henry solubility constant Hcp,[4],0.0054
"ClCC(Cl)CCCCCCCC(Cl)CCl (stereo not drawn) [1,2,10,11-tetrachloroundecane]",Henry solubility constant Hcp,reference: Drouillard et al. (1998),0.16
CCCc1ccc(O)c(OC)c1 [4-propylguaiacol],Henry solubility constant Hcp,reference: McFall et al. (2020),4.3
CC(Cc1ccc(C(C)(C)C)cc1)CN1CCCCC1 (stereo not drawn) [fenpropidin],Henry solubility constant Hcp,reference: Feigenbrugel and Le Calvé (2021),710
CCCC(=O)OC [methyl butanoate],Henry solubility constant Hcp,reference: Aprea et al. (2007),0.037
same,Henry solubility constant Hcp,reference: Ioffe et al. (1984),0.036
OCCN1CCNCC1 [N-(2-hydroxyethyl)piperazine],Henry solubility constant Hcp,reference: Nguyen (2013),2900
Cc1ccco1 [2-methylfuran],Henry solubility constant Hcp,reference: Wieland et al. (2015),0.0015
"Clc1ccccc1-c1ccccc1Cl [2,2'-dichlorobiphenyl]",Henry solubility constant Hcp,[3],0.045
COc1cc(C)ccc1O [4-methyl-2-methoxyphenol],Henry solubility constant Hcp,reference: Sagebiel et al. (1992),7.7 and 7.1
"Clc1ccc(-c2cc(Cl)c(Cl)c(Cl)c2Cl)c(Cl)c1 [2,2',3,4,4',5-hexachlorobiphenyl]",Henry solubility constant Hcp,[3],0.021
C1COCCN1 [1-oxa-4-azacyclohexane],Henry solubility constant Hcp,reference: Nguyen (2013),190
CCCCCCCCC [nonane],Henry solubility constant Hcp,reference: Jönsson et al. (1982),1.8e-06
same,Henry solubility constant Hcp,reference: Park et al. (1997),1.9e-06
O=C1CCCCCCCCCCCCCCO1 [oxacyclohexadecan-2-one],Henry solubility constant Hcp,[1],0.004
Cc1cccc(C=O)c1 [3-methylbenzaldehyde],Henry solubility constant Hcp,reference: Wu et al. (2022b),0.3
O=C(O)C(Br)Br [dibromoethanoic acid],Henry solubility constant Hcp,reference: Bowden et al. (1998a),2200
"Clc1cccc(-c2ccc(Cl)cc2Cl)c1 [2,3',4-trichlorobiphenyl]",Henry solubility constant Hcp,[3],0.062
CC(=O)/C=C/C1=C(C)CCCC1(C)C [β-ionone],Henry solubility constant Hcp,[5],1.2
CCCCN [1-butanamine],Henry solubility constant Hcp,reference: Butler and Ramchandani (1935),0.65
same,Henry solubility constant Hcp,[2],0.56
"Cc1cccc(C)n1 [2,6-dimethylpyridine]",Henry solubility constant Hcp,reference: Hawthorne et al. (1985),0.66
